Data as given in US20260240959A1, “METHODS FOR IN VIVO EDITING OF KLKB1” (INTELLIA THERAPEUTICS, INC., priority 2022, published 2026).

Tests used:
[1] = cited from earlier work
[2] = Half-lives of HAE prophylactic products (from product sources); details: for half-life: human
[3] = Plasma pharmacokinetics of LP01 (LC-MS/MS) in HAE patients; format: in vivo, human
Description: Blood samples were collected to assess plasma concentration time profiles pre-infusion, during the infusion period, and at the end of the infusion period. Post infusion samples were collected at predefined time points as indicated in the graph (FIG. 37). LP01 (Lipid A) was quantified using liquid chromatography with tandem mass spectrometry (LC-MS/MS) methods. Plasma samples were evaluated using validated methods following regulatory guidelines.

Compound: C#C[C@]1(O)CC[C@H]2[C@@H]3CCC4=Cc5oncc5C[C@]4(C)[C@H]3CC[C@@]21C [Danocrine, Danazol, reference compound]
- Half Life (t1/2) [1]: 9.7 h
- half-life [2]: 48.5 h

Compound: CCCCC/C=C\C/C=C\CCCCCCCC(=O)OCC(COC(=O)CCC(OCCCCCCCC)OCCCCCCCC)COC(=O)OCCCN(CC)CC (centres unmarked) [LP01, (9Z,12Z)-3-((4,4-bis(octyloxy)butanoyl)oxy)-2-((((3-(diethylamino)propoxy)carbonyl)oxy)methyl)propyl octadeca-9,12-dienoate]
- half-life ([3]; human, single dose IV infusion of NTLA-2002 25, 50 or 75 mg, range of cohort means, read-out: mean t1/2): 16.8 to 21.3 h
- decline below limit of quantification by ([3]; single dose IV infusion of NTLA-2002): ≤ 15 days

Compound: N#Cc1cccc([C@@H](NCC2CC2)c2ccc(F)c(NC(=O)c3cc(C(F)(F)F)nn3-c3cccc(CN)c3)c2)c1 [Orladeyo, Berotralstat, reference compound]
- Half Life (t1/2) [1]: 93 h
- half-life [2]: 465 h

Compound: C[C@]12COC(=O)C[C@@H]1CC[C@@H]1[C@@H]2CC[C@@]2(C)[C@H]1CC[C@]2(C)O [Oxandrin, Oxandrolone]
- half-life [2]: 66.5 h

Compound: Cinryze: C1 Esterase Inhibitor [Human], HAE prophylactic product
- Half Life (t1/2) [1]: 56 to 62 h
- Estimated washout for (5 half-lives) [2]: 310 hours = ~13 days

Compound: Haegarda: C1 Esterase Inhibitor [Human], HAE prophylactic product
- Half Life (t1/2) [1]: 69 h
- Estimated washout for (5 half-lives) [2]: 345 hours = ~14.5 days
